From PubChem BioAssay AID1963982 (Molecular Pharmacology Branch, DTP, NCI, 2024)

System: 313798-341-R-J2-PDC spheroids, viability
Assay: Anticancer human tumor 313798-341-R-J2-PDC patient-derived cervical squamous cell carcinoma cell line growth inhibition [PI3K]
Details: spheroids with HUVEC and MSC; for IC50: curve of first compound; for viability, T/C: stronger effect = lower value
Excerpt: Combinatorial screen of targeted agents with the PI3K inhibitors inavolisib, alpelisib, duvelisib, and copanlisib in multi-cell type tumor spheroids
A high-throughput screen of multi-cell type tumor spheroids was designed to identify active combinations of targeted small molecules and PI3K pathway inhibitors. Complex spheroids include a stromal component modeled by human endothelial cells (HUVEC) and fibroblasts modeled by human mesenchymal stem cells (MSCs). The concentration ranges selected for each drug and investigational agent were based upon clinically achievable concentrations if the clinical Cmax of the agent was known.
Compounds. The drugs and investigational agents: inavolisib (NSC800729), alpelisib (NSC765974), duvelisib (NSC772469), copanlisib (NSC816437), ipatasertib (NSC767898), afuresertib (NSC778305), talazoparib (NSC767125), sapanisertib (NSC764658), selumetinib (NSC741078), tovorafenib (DAY101, NSC766906), vemurafenib (NSC761431), ravoxertinib (NSC781343), sotorasib (NSC818433), MRTX1133 (NSC 836407), abemaciclib (NSC 768073), palbociclib (NSC758247), venetoclax (NSC 766270), SY5609 (NSC837396), enzalutamide (NSC755605), and darolutamide (NSC825331), were obtained from the National Cancer Institute (NCI) Developmental Therapeutics Program Chemical Repository. The FDA-approved anticancer drug set is available from the NCI Developmental Therapeutics Program. […] The stock solutions were prepared in dimethyl sulfoxide (DMSO, Sigma-Aldrich, St. Louis, MO, cat. D2650) at 800-fold the tested concentration and stored at -70 degrees C prior to their use. All drugs and investigational agents were tested over a range starting from a high concentration at or near the clinical Cmax and decreasing in half-log increments. If the clinical Cmax for an agent had not been determined, the highest concentration tested was 10 microM.
Cell Culture. All cells were maintained in an incubator at 37 degrees C and 5% CO2 with 95% humidity. The PDC lines were cultured according to standard operating procedures established by the NCI PDMR (https://pdmr.cancer.gov/sops/default.htm). All PDCs were thawed and cultured in Matrigel-coated flasks prepared with a working solution of 1X Ham's F-12 nutrient mix, without supplementation (Invitrogen, Waltham, MA, cat. 11765054), 100 U/mL penicillin-streptomycin (Invitrogen, cat. 15140122), and 2.5% Matrigel (Corning Inc., Corning, NY, cat. 354248) for the first three passages. The 354836-022-R-J1-PDC, 475296-252-R-J1-PDC, and 997726-040-R-J2-PDC lines were cultured in 6A media, which includes advanced DMEM/F-12 (Thermo Fisher Scientific, cat. 12634028), 10 mM HEPES (Thermo Fisher Scientific, cat. 15630080), 1X GlutaMAX supplement (Thermo Fisher Scientific, cat. 35050061), 0.1 mg/mL primocin (InvivoGen, San Diego, CA, cat. ant-pm-2), 10% defined fetal bovine serum, heat inactivated (HyClone Laboratories Inc., Logan, UT, cat. SH30070.03HI), 50% L-WRN conditioned media (ATCC, cat. CRL-3276), 1.25 mM N-Acetyl-L-cysteine (Sigma-Aldrich, cat. A9165), 10 mM nicotinamide (Sigma-Aldrich, cat. N0636), 1X B-27 supplement (Thermo Fisher Scientific, cat. 17504044), 1X N-2 supplement (Thermo Fisher Scientific, cat. 17502048), and 10 microM Y-27632 dihydrochloride (Tocris Bioscience, Bristol, United Kingdom, cat. 1254). The 624824-186-R-J2-PDC line was cultured in 6C/Colon 1B media, which includes all 6A media components plus 50 ng/mL human EGF recombinant protein (Thermo Fisher Scientific, cat. PHG0311). […]
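Also: spheroids exposed to compounds for seven days.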
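For viability, T/C in this document: 100% = DMSO vehicle control viability.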

Work on Cn1cnc2c(F)c(Nc3ccc(Br)cc3Cl)c(C(=O)NOCCO)cc21 + CC(Nc1ncnc2nc[nH]c12)c1cc2cccc(Cl)c2c(=O)n1-c1ccccc1 yielded an IC50 (second compound 0.0316 µM) of over 3 µM, an IC50 (second compound 0.1 µM) of over 3 µM and an IC50 (second compound 0.316 µM) of over 3 µM. It also gave an IC50 (second compound 1 µM) of over 3 µM, an IC50 (second compound 3.16 µM) of over 3 µM and an IC50 (second compound 10 µM) of over 3 µM. It also gave a viability, T/C (second compound 0.0316 µM, first compound 0.00949 µM) of 97.3%, a viability, T/C (second compound 0.0316 µM, first compound 0.03 µM) of 99% and a viability, T/C (second compound 0.0316 µM, first compound 0.0949 µM) of 92.1%. The viability, T/C (second compound 0.0316 µM, first compound 0.3 µM) was 91.4%, the viability, T/C (second compound 0.0316 µM, first compound 0.949 µM) was 89.2% and the viability, T/C (second compound 0.0316 µM, first compound 3 µM) was 77.9%. The viability, T/C (second compound 0.1 µM, first compound 0.00949 µM) was 85.7%, the viability, T/C (second compound 0.1 µM, first compound 0.03 µM) was 95.7% and the viability, T/C (second compound 0.1 µM, first compound 0.0949 µM) was 89%. For the same compound, the viability, T/C (second compound 0.1 µM, first compound 0.3 µM) was 95.2%, the viability, T/C (second compound 0.1 µM, first compound 0.949 µM) was 80% and the viability, T/C (second compound 0.1 µM, first compound 3 µM) was 81.3%. The viability, T/C (second compound 0.316 µM, first compound 0.00949 µM) was 87.2%, the viability, T/C (second compound 0.316 µM, first compound 0.03 µM) was 93.7% and the viability, T/C (second compound 0.316 µM, first compound 0.0949 µM) was 87.6%. For the same compound, the viability, T/C (second compound 0.316 µM, first compound 0.3 µM) was 92.7%, the viability, T/C (second compound 0.316 µM, first compound 0.949 µM) was 87.1% and the viability, T/C (second compound 0.316 µM, first compound 3 µM) was 74.6%. It also gave a viability, T/C (second compound 1 µM, first compound 0.00949 µM) of 96.6%, a viability, T/C (second compound 1 µM, first compound 0.03 µM) of 98.1% and a viability, T/C (second compound 1 µM, first compound 0.0949 µM) of 90.3%. The viability, T/C (second compound 1 µM, first compound 0.3 µM) was 86.1%, the viability, T/C (second compound 1 µM, first compound 0.949 µM) was 90.1% and the viability, T/C (second compound 1 µM, first compound 3 µM) was 71.5%. The viability, T/C (second compound 3.16 µM, first compound 0.00949 µM) was 92.4%, the viability, T/C (second compound 3.16 µM, first compound 0.03 µM) was 87.7% and the viability, T/C (second compound 3.16 µM, first compound 0.0949 µM) was 94.3%. The viability, T/C (second compound 3.16 µM, first compound 0.3 µM) was 89%, the viability, T/C (second compound 3.16 µM, first compound 0.949 µM) was 79.7% and the viability, T/C (second compound 3.16 µM, first compound 3 µM) was 76.8%. For the same compound, the viability, T/C (second compound 10 µM, first compound 0.00949 µM) was 75.2%, the viability, T/C (second compound 10 µM, first compound 0.03 µM) was 81.3% and the viability, T/C (second compound 10 µM, first compound 0.0949 µM) was 80.8%. The viability, T/C (second compound 10 µM, first compound 0.3 µM) was 73.8%, the viability, T/C (second compound 10 µM, first compound 0.949 µM) was 80.5% and the viability, T/C (second compound 10 µM, first compound 3 µM) was 53.1%.
